System: Venturia inaequalis
Assay: Venturia test (apples)/preventive
Format: in vivo, Venturia inaequalis on apples
Settings: preventive spray on young apple plants, evaluated 10 days after inoculation
Method: Venturia Test (Apples)/Preventive
• Solvent: 24.5 parts by weight of acetone • 24.5 parts by weight of dimethylacetamide • Emulsifier: 1 part by weight of alkylaryl polyglycol ether
To produce a suitable preparation of active compound, 1 part by weight of active compound is mixed with the stated amounts of solvent and emulsifier, and the concentrate is diluted with water to the desired concentration. To test for preventive activity, young plants are sprayed with the preparation of active compound at the stated rate of application. After the spray coating has dried on, the plants are inoculated with an aqueous conidia suspension of the causal agent of apple scab (Venturia inaequalis) and then remain for 1 day in an incubation cabinet at approximately 20° C. and a relative atmospheric humidity of 100%. The plants are then placed in a greenhouse at approximately 21° C. and a relative atmospheric humidity of approximately 90%. The test is evaluated 10 days after the inoculation. 0% means an efficacy which corresponds to that of the untreated control, while an efficacy of 100% means that no disease is observed.

Structure (SMILES)	Efficacy in % found (0.4 ppm a.i.) [%]	Efficacy in % found (20 ppm a.i.) [%]	Efficacy in % found (40 ppm a.i.) [%]
COC(c1ccc(Cl)cc1Cl)C(C)NC(=O)c1cn(C)nc1C(F)F (stereo not drawn) [(10), 3-(difluoromethyl)-1-methyl-1H-pyrazole-4-carboxylic acid [2-(2,4-dichlorophenyl)-2-methoxy-1-methyl-ethyl]-amide]	18		
Cn1c(=O)c2sc3c(=O)n(C)c(=O)c3sc2c1=O [(I-1), 2,6-dimethyl-1H,5H-[1,4]dithiino[2,3-c:5,6-c′]dipyrrole-1,3,5,7(2H,6H)-tetrone]		46	65

— patent US9192161B2, “Fungicidal combinations comprising a dithiino-tetracarboxamide fungicide” (BAYER INTELLECTUAL PROPERTY GMBH, priority 2011, dated 2015)
